Values of other authors in patent US7378114B2, “Method for producing soluble composition containing isoflavones” (Fuji Oil Company, Limited, priority 2001, dated 2008).

Details: under 25° C.; according to the literature; per 100 g solvent

solubility in water: 0.002 to 0.003 g
Compound: O=c1c(-c2ccccc2)coc2ccccc12 [isoflavone]
